Experimental data published in patent US20040122089A1, “Novel eicosanoid analgesics” (priority 2001, published 2004).
Where two headings read alike, the source gives them in different places.

Legend:
[1] = system: anandamide membrane transporter (AMT); type: cell-based, rat; details: [14C]AEA uptake, RBL-2H3 cells
Experimental: (§1) The effect of compounds on the enzymatic hydrolysis of [^14C] AEA (6 μM) was studied by using membranes prepared from N18TG2 cells incubated with increasing concentrations of compounds in 50 mM Tris-HCL, pH 9, for 30 min at 37° C. [^14C] Ethanolamine produced from [^14C] AEA hydrolysis was quantified by scintillation spectroscopy and used to measure fatty acid amide hydrolase (FAAH) activity. The effect of compounds on the uptake of AEA by RBL-2H3 cells was studied with a procedure analogous to that described in Melck, ibid., and modified as described in Hilliard et al., J. Neurochem. 69:631-638 (1997). Cells were incubated with [^14C] AEA (4μM) for 5 min. at 37° C., in the presence or absence of varying concentrations of the inhibitors. Residual [1^4C] AEA in the incubation media after extraction with CHCl3/CH30H (2:1 by volume) was used as a measure of the AEA that was taken up by cells.
In consideration of the potent inhibition of the AMT previously observed with arvanil and its derivatives (see Melck, ibid), the seven compounds were also tested for their inhibitory effect on [^4C] […] Thus, the results in Table 1 confirm the existence of a partial overlap between the ligand recognition properties of VR1 receptors and the AMT (14.24).

AMT = type: cell-based, rat; details: RBL-2H3 cells; read-out: AMT IC50
Experimental: AEA. Cells were incubated with [^14C] AEA for 5 min at 37° C., in the presence or absence of varying concentrations of the inhibitors. Residual [^14C] AEA in the incubation media after extraction with CHCl3/CH3OH 2:1 (by vol.), determined by scintillation counting of the lyophilized organic phase, was used as a measure of the AEA that was taken up by cells.
CP55940 from whole rat brain membranes.

mice = test: Mouse 'tetrad' of tests after i.v. administration (Example 2); details: for ED50: Mus musculus, iv
CB1 receptors = CB1 receptors (Rattus norvegicus, UniProt P20272); test: CB1 receptor binding, displacement of [3H]CP-55,940 from rat brain P2 membranes (Example 2); parameters: from tissue; host or cells: whole rat brain membranes; details: for Ki: rat brain membranes
Experimental: (§2) For CB1 receptor binding, [^3H]CP-55,940 (Kd=[…]) was incubated with P2 membranes from whole rat brains as described in Compton et al., J. Pharm. Exp. Ther. 265:218-226 (1993). Displacement curves were generated by incubating drugs with 1 nM of [^3H]CP-55,940. The assays were performed in triplicate, and the results represent the combined data from three individual experiments. A separate set of experiments were conducted in which phenylmthylsulfonylfluoride (PMSF) was added at a concentration of 100 μm in order to prevent possible metabolism of the analogs. CB2 binding assays were performed as described in Melek et al., ibid. In all cases, Ki values were calculated applying the Cheng-Prusoff equation to the IC50 values (obtained by GraphPad) for the displacement of the bound radioligand by increasing concentrations of the test compounds.
(§3) In Table 1, affinity for CB1 and CB2 receptors was measured in displacement assays carried out using rat brain or spleen membranes and [^3H]CP 55,940 or […], respectively. Potency at human VR1 was established by measuring the stimulatory activity of the compounds on the Ca^2+ intracellular concentration in HEK cells transfected with cDNA encoding the human VR1 receptor. Efficacy at VR1 was measured by expressing the effect of a maximal concentration of each compound (usually 10 μM) as percent of the maximal possible effect obtained with 4 μM ionomycin. Data are means ±SEM of at least n=3 separate determinations. *Ki was determined in the presence of PMSF.

human VR1 receptor = human VR1 receptor (Homo sapiens, UniProt Q8NER1); test: Ca2+ influx (Fluo-3) in HEK-hVR1 cells (Example 2); type: cell-based; parameters: expressed in transfected cells; host or cells: HEK 293 cells (HEK-hVR1); details: for VR1 efficacy: maximal concentration (usually 10 μM), percent of effect of 4 μM ionomycin
Experimental: N18TG2 and RBL-2H3 cells were grown as described in Melck et al, Bioch. Biophys. Res. Commun. 262:275-284 (1999). Ionomycin was purchased from Sigma. DMH-arvanil, and six substituted dimethylpentyl (DMP) derivatives of arvanil and met-AEA were synthesized as described in Example 1.
HEK-hVR1 cells were prepared and loaded as described in De Petrocellis, et al., FEBS Lett. 483:52-56 (2000). Experiments were carried out by measuring fluorescence at 25° C. […] Capsazepine (1-5 μM) was added 30 minu. Before the test compounds.
as §3

[2] = target: T1, fatty acid amide hydrolase (FAAH) (Mus musculus, UniProt O08914); test: [14C]AEA hydrolysis by N18TG2 cell membranes; type: biochemical
T1 construct: membranes prepared from N18TG2 cells; endogenous in cells; host or cells: N18TG2 cell membranes
T1 sequence (O08914 1-579): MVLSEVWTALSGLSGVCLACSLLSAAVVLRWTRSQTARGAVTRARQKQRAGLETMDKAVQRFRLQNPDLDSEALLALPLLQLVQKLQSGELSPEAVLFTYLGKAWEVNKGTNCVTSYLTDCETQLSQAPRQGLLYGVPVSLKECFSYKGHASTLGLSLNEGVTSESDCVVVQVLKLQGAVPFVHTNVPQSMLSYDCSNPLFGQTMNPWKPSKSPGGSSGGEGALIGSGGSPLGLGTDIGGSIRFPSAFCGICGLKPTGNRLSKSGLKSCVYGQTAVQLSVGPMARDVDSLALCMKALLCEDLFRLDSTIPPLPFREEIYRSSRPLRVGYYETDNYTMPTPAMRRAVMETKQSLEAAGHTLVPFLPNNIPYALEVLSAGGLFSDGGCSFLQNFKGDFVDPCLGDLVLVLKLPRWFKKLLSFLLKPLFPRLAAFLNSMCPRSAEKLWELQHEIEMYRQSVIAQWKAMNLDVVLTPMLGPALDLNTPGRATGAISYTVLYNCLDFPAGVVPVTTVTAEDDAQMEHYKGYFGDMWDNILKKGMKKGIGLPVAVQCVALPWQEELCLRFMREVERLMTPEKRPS
Experimental: as §1
Accordingly, when the compounds were tested for their capability of inhibiting [^14C] […] This is in agreement with previous observations that Me-AEA, DMH-derivatives of AEA and arvanil are poor substrates for FAAH. The two exceptions were O-1856 and O-1895, which did inhibit the hydrolysis of [^14C] AEA, although not very potently.

CB2 receptors = target: T2, CB2 receptors (Rattus norvegicus, UniProt Q9QZN9); test: CB2 binding, displacement of [3H]WIN55,212-2 from rat spleen membranes
T2 construct: rat spleen membranes, which contain mostly CB2 receptors; from tissue; host or cells: rat spleen membranes
T2 sequence (Q9QZN9 1-360): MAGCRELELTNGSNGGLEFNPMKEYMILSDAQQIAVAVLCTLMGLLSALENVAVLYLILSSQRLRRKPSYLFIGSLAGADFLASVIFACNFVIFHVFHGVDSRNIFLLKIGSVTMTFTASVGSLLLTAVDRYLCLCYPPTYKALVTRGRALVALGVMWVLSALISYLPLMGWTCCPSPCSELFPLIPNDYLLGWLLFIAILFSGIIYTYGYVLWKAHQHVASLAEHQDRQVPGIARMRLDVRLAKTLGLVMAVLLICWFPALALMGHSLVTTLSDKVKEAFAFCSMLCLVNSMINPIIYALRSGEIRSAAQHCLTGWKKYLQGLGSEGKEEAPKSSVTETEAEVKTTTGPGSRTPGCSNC
Experimental: as §2, §3
The hydroxy analog is much less CB1 vs. CB2 selective in both series.

[3] = read-out: Average ED50 for the four effects
[4] = read-out: R.I. (relative immobility) ED50
[5] = read-out: R.T. (rectal temperature) ED50
[6] = read-out: S.A. (spontaneous activity) ED50
[7] = read-out: T.F. (tail-flick) ED50
[8] = CB1 (Ki, nM), determined in the presence of PMSF, [3H]CP 55,940, PMSF 100 μM
[9] = CB1 (Ki, nM), [3H]CP 55,940, without PMSF
[10] = VR1 (EC50, nM), Ca2+ in HEK cells with human VR1
[11] = VR1 EC50, HEK cells with human VR1

Sequence of human VR1 receptor (Q8NER1 whole entry): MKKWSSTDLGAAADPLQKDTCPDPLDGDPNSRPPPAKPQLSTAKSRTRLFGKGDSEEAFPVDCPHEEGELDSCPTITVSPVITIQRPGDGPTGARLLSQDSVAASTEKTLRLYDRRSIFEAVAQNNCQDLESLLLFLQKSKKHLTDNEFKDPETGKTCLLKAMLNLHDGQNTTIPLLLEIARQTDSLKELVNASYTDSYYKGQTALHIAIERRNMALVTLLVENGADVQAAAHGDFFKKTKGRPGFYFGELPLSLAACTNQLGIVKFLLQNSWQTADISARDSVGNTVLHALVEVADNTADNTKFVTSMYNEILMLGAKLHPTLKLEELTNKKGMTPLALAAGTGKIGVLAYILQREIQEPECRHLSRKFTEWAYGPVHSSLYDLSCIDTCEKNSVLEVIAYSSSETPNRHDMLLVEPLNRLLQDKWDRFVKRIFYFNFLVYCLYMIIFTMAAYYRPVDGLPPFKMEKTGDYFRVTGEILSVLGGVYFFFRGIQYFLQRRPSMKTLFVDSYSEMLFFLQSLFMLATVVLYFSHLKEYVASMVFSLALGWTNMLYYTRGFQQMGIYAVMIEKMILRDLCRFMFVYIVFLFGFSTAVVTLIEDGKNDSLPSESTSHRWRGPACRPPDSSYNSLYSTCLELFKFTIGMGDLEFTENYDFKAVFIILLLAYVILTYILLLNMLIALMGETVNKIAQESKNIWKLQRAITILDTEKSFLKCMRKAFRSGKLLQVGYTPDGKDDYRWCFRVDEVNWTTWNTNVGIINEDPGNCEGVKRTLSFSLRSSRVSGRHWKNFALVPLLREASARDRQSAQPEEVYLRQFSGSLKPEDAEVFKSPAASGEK
Sequence of CB1 receptors (P20272 whole entry): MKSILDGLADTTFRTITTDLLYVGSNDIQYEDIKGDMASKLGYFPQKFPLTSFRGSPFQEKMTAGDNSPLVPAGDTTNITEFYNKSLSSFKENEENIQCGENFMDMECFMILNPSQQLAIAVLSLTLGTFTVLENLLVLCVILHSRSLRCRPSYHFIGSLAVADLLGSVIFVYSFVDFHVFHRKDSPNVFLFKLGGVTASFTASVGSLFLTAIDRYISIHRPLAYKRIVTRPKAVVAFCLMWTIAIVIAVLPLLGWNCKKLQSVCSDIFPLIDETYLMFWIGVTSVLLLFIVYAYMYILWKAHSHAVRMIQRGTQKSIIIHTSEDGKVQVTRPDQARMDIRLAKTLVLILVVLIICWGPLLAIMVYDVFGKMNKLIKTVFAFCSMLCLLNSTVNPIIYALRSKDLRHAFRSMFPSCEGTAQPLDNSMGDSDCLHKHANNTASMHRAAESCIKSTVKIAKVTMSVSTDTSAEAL

SMILES | IC50 [1] [µM] | ED50 (mice; [3]) [mg/kg] | ED50 (mice; [4]) [mg/kg] | ED50 (mice; [5]) [mg/kg] | ED50 (mice; [6]) [mg/kg] | ED50 (mice; [7]) [mg/kg] | VR1 efficacy (human VR1 receptor) [%] | Ki (CB1 receptors; [8]) [nM] | Ki (CB1 receptors; [9]) [nM] | EC50 (human VR1 receptor; [10]) [nM] | EC50 (human VR1 receptor; [11]) [nM] | IC50 [2] [µM] | Ki (CB2 receptors) [µM] | further results
CCCCC/C=C\C/C=C\C/C=C\C/C=C\CCCC(=O)Nc1ccc(O)cc1 [AM404, reference compound] | 8.1 |  |  |  |  |  |  |  |  |  |  |  |  | IC50 (AMT): 8.1 ± 2.6 µM
C[C@H](CO)NC(=O)CCC/C=C\C/C=C\C/C=C\C/C=C\C(C)(C)CCCCO [Compound O-1811, (R)-(16,16-Dimethyl-20-hydroxyeicosa-cis-5,8,11,14-tetraenoyl)-1′-hydroxy-2′-propylamine] | 42.5 ± 3.3 | 0.773 | 0.663 | 0.188 | 0.996 | 1.24 | 62.5 ± 0.8 |  |  |  |  |  |  | fold more potent in reducing body temperature than in increasing tail-flick latency (mice; mice, i.v.): approximately 10 fold; Ki (CB1 receptors; [3H]CP 55,940, PMSF 100 μM, read-out: CB1 (Ki, nM), determined in the presence of PMSF): 116 ± 11.1 nM; Ki (CB1 receptors; [3H]CP 55,940, without PMSF, read-out: CB1 (Ki)): 115 ± 25.2 nM; EC50 (human VR1 receptor; Ca2+ in HEK cells with human VR1, read-out: VR1 (EC50)): 724 ± 99 nM; IC50 ([2]; [14C]AEA hydrolysis, N18TG2 cell membranes, read-out: FAAH (IC50)): > 50 µM; Ki (CB2 receptors; rat spleen membranes, read-out: CB2 (Ki)): 0.8 ± 0.15 µM
C[C@H](CO)NC(=O)CCC/C=C\C/C=C\C/C=C\C/C=C\C(C)(C)CCCCC#N [Compound O-1812, (R)-(20-cyano-16,16-Dimethyleicosa-cis-5,8,11,14-tetraenoyl)-1′-hydroxy-2′-propylamine] | 37 ± 4.5 | 0.025 | 0.017 | 0.05 | 0.017 | 0.014 | 50.0 | 4.6 ± 0.4 | 3.4 ± 0.5 | 1950 ± 184 | 1900 | > 50 | 3.87 ± 0.235 | fold more potent on CB1 than on CB2 (CB1 receptors): 1000 fold; fold more potent on CB1 than on VR1 (CB1 receptors): 580 fold; VR1 efficacy (human VR1 receptor; listed as 0-1812): 50.0 ± 1.6%
CCCCCCC(C)(C)/C=C\C/C=C\C/C=C\C/C=C\CCCC(=O)NCc1ccc(O)c(OC)c1 [Compound O-1839, 16,16-Dimethyl-docosa-5,8,11,14-all-cis-tetraenoic acid (4-hydroxy-3-methoxy-benzyl) amide] | 19.3 ± 2.3 | 0.078 |  | 0.08 | 0.08 | 0.074 | 71.9 ± 4.5 | 201 ± 4.1 | 262 | 0.7 ± 0.08 |  | > 50 | > 10 | 
COc1cc(CNC(=O)CCC/C=C\C/C=C\C/C=C\C/C=C\C(C)(C)CCCCO)ccc1O [Compound O-1856, 16,16-Dimethyl-20-hydroxy-eicosa-5,8,11,14-all-cis-tetraenoic acid (4-hydroxy-3-methoxy-benzyl) amide] | 42 | 0.873 | 0.76 | 1.45 | 0.47 | 0.81 | 83.9 ± 5.1 | 1070 ± 134 | 790 | 5 ± 0.7 |  | 14.5 ± 3.4 | > 10 | IC50 ([1]; listed as 0-1856): 40 ± 3.8 µM
C[C@H](CO)NC(=O)CCC/C=C\C/C=C\C/C=C\C/C=C\C(C)(C)CCCCBr [Compound O-1860, (R)-(20-Bromo-16,16-Dimethyleicosa-cis-5,8,11,14-tetraenoyl)-1′-hydroxy-2′-propylamine] | 40 ± 4.5 | 0.388 | 0.43 | 0.44 | 0.39 | 0.29 | 50.0 | 1 ± 0.1 | 2.2 | 371 ± 34 | 370 | > 50 | > 10 | VR1 efficacy (human VR1 receptor; listed as 0-1860): 62.1 ± 5.7%
